Measurements published in patent US6413979B1, “Substituted 5-(2,2-difluoro-1,3-benzodioxol-5-yl) cyclopentenopyridine derivative” (Banyu Pharmaceutical Co., Ltd., priority 1998, dated 2002).
Read-outs that look alike come from different tables or passages of the source.

How the values were obtained:
[1] = biological target: T1, ETB receptor (Homo sapiens, UniProt P24530); assay: Endothelin binding inhibition test on human endothelin receptors ([125I]endothelin-1), ETB; conditions: human cell membranes, 20 pM [125I]endothelin-1, 4 hours incubation
T1 construct: host or cells: human Girardi heart cells (membranes)
T1 sequence (P24530 27-442): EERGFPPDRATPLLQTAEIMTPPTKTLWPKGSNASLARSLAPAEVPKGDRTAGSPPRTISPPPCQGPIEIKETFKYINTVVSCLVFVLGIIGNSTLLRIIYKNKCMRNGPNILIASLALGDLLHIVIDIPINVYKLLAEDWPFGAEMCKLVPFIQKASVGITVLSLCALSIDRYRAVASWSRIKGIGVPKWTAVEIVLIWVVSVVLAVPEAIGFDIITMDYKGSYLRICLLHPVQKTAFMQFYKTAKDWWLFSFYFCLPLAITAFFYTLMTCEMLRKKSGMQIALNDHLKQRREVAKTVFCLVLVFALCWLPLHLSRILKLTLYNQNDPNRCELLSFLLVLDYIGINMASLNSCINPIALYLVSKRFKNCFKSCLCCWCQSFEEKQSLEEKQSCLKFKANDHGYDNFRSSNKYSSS
Protocol: (§1) Endothelin Binding Inhibition Test on Human Endothelin Recepters
The human neuroblastoma SK-N-MC cells or the human Giradi heart cells, purchased from Dainippon Seiyaku (Japan), were cultured in minimal essential medium supplemented with fetal calf serum. The cells were collected and homogenized in 10 mM MOPS buffer (pH 7.4) containing 154 mM NaCl, 10 mM KCl, 0.8 mM CaCl2 and 20% sucrose at 4° C. using a polytron homogenizer. The homogenate was then centrifuged at 10,000×g for 15 minutes. The supernatant was centrifuged at 100,000×g for 1 hour at 4° C. Then the pellet was washed with 5 mM HEPES/Tris buffer (pH 7.4). […] After the filtration, the filters were washed with buffer B, and the radioactivity on the filters was measured in a γ counter. Nonspecific binding was determined in the presence of 200 nM endothelin-1. […]
(§2) where (A): for nonspecific binding including 200 nM of unlabeled endothelin-1 as the final concentration, (B): for total binding including labeled endothelin-1 without a test compound, and (C): for binding including labeled endothelin-1 with a concentration of a test compound, show the radioactivity.

[2] = biological target: T2, ETA receptor (Homo sapiens, UniProt P25101); assay: Endothelin binding inhibition test on human endothelin receptors ([125I]endothelin-1), ETA
T2 construct: host or cells: human neuroblastoma SK-N-MC cells (membranes)
T2 sequence (P25101 21-427): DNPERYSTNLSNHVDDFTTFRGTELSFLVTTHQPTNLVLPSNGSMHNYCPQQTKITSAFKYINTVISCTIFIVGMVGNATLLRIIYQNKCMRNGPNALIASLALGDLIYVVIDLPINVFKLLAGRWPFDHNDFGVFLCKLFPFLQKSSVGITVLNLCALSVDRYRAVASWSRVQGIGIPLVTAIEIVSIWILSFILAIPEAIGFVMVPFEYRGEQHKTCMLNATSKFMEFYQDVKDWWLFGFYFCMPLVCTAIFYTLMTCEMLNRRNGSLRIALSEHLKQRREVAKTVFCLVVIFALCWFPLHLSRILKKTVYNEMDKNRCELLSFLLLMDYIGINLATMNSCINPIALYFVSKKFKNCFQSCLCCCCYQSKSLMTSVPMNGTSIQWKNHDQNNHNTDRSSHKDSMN
Protocol: as §1
The human neuroblastoma SK-N-MC cells or the human Giradi heart cells, purchased from Dainippon Seiyaku (Japan), were cultured in minimal essential medium supplemented with fetal calf serum. The cells were collected and homogenized in 10 mM MOPS buffer (pH 7.4) containing 154 mM NaCl, 10 mM KCl, 0.8 mM CaCl2 and 20% sucrose at 4° C. using a polytron homogenizer. The homogenate was then centrifuged at 10,000×g for 15 minutes. The supernatant was centrifuged at 100,000×g for 1 hour at 4° C. Then the pellet was washed with 5 mM HEPES/Tris buffer (pH 7.4). The resulting membranes (50 μl) were mixed with [^125I]endothelin-1 (20 pM) and 4 μl of DMSO solution of a test compound in 67 mM Tris/HCl buffer (pH 7.4) containing 0.13 mM phenylmethanesulfonyl fluoride, 1.3 μM pepstatin, 2.7 μM leupeptin, 1.3 mM 1,10-phenanthroline, 1.3 mM EDTA, 13 μM CaCl2, 13 μM MgCl2 and 0.13% bovine serum albumin (BSA) in a total volume of 0.35 ml. After 4 hours incubation, cold 5 mM HEPES/Tris buffer (pH 7.4) containing 0.3% BSA (Buffer B) was added to the mixture, and free and bound [^125I]endothelin-1 were separated by filtration using Whatman GF/C glass fiber filters. After the filtration, the filters were washed with buffer B, and the radioactivity on the filters was measured in a γ counter. Nonspecific binding was determined in the presence of 200 nM endothelin-1.
The concentration of a test compound of the present invention causing 50% inhibition of [^125I]endothelin-1 binding (IC50 value) was derived by the following [^125I]endothelin-1 binding inhibition D (%): [formula]
as §2

[3] = test system: endothelin-induced contraction of iliac artery specimen
Protocol: Effect on Endothelin-induced Contraction of Iliac Artery Specimen from Rabbit
The iliac artery was excised from a rabbit and made into a spiral specimen of 1 mm wide and 10 mm long. The specimen was stripped of the endothelial cells and suspended in a 5 ml Magnus tube filled with Krebs-Henseleit solution saturated with a gas mixture of O2 (95%) and CO2 (5%), and the change in tension was isometrically measured and recorded.
The effects of a compound of the present invention on the dose-response curve obtained by cumulative addition of endothelin-1 to the Magnus tube were investigated. A compound of the present invention was added to the Magnus tube at a final concentration of 10 μM 20 minutes before the addition of endothelin-1.

[4] = 10 mg/kg as sodium salt in water, SD male rats, bioassay
Protocol: Concentration in Rat Plasma after Oral Administration
SD male rats (8 weeks old, n=3) were subjected to cannulation of the carotid artery beforehand and after the recovery from the surgery, subjected to a fast of one night for the test. The sodium salt of the diastereomer A prepared in Example 14, which is a representative compound of the present invention, was dissolved in water, and the resulting aqueous solution (concentration: 2.0 mg/ml) was forcibly administrated into the stomach in an amount of 10 mg/kg by gavage. Before the administration and 1, 4 and 8 hours after the administration, 120 μl of the blood was withdrawn from the cannulae in the carotid arteries with the aid of heparin and the plasma was separated by cold centrifugation. 25 μl of portions of the plasma were deproteinized by adding 100 μl of ethanol and centrifuged (10,000×g, 10 minutes, 0° C.) under cooling. 80 μl portions of the supernatants was used for a bioassay of the concentration in plasma.

| Compound | IC50 [1] [nM] | binding-inhibitory activity to ETA receptor compared with ETB receptor (in words) [2] | IC50 ([2]; human cell membranes, 20 pM [125I]endothelin-1, 4 hours incubation) [nM] | ETB/ETA ([2]; ratio of IC50 values) | change in the maximum response to endothelin-1 ([3]; concentrations from 0.1 μM to 10 μM) | effect on the dose-response curve for endothelin-1 ([3]; concentrations from 0.1 μM to 10 μM, added 20 minutes before endothelin-1) | effect of the compound by itself on the artery specimen ([3]; without endothelin-1) | concentration in rat plasma ([4]; 1 hour after oral administration) [ng/mL] | concentration in rat plasma ([4]; 4 hours after oral administration) [ng/mL] | concentration in rat plasma ([4]; 8 hours after oral administration) [ng/mL] |
| --- | --- | --- | --- | --- | --- | --- | --- | --- | --- | --- |
| COc1ccc([C@@H]2c3nc(NC(C)C)ccc3[C@H](c3ccc4c(c3)OC(F)(F)O4)[C@H]2C(=O)O)c(CC(C)C(=O)O)c1 (single isomer, unassigned; diastereomer a) [Diastereomer A of example 18] | 78 | far higher binding-inhibitory activity to ETA receptor than to ETB receptor | 0.056 | ETB/ETA = 1400 | – | – | – | – | – | – |
| COc1ccc([C@@H]2c3nc(NC(C)C)ccc3[C@H](c3ccc4c(c3)OC(F)(F)O4)[C@H]2C(=O)O)c(CC(C)CO)c1 (single isomer, unassigned; diastereomer a) [diastereomer A prepared in Example 14] | – | – | – | – | no change in the maximum response | appreciably shifted the dose-response curve for endothelin-1 to the right | no effect on the artery specimen by itself | 452 | 124 | 203 |
